Laboratory results from patent publication US20120190752A1, “EXO-S-MECAMYLAMINE METHOD, USE, AND COMPOUND FOR TREATMENT” (Targacept Inc., priority 2009, published 2012).

Test system: subjects with major depressive disorder (MDD) who were inadequate responders to citalopram
Experiment: HAMD-17 total score, Phase 2b trial of TC-5214 as add-on to citalopram
Assay type: in vivo, human
Conditions: for HAMD-17 total score, observed Mean / HAMD-17 total score, observed Median / HAMD-17 Remission (Score ≦7): Subjects with Remission (number) / HAMD-17 Remission (Score ≦7): Subjects with Remission (percentage) / HAMD-17 Remission (Score ≦7): Subjects without Remission (number) / HAMD-17 Remission (Score ≦7): Subjects without Remission (percentage) / HAMD-17 Remission (Score ≦10): Subjects with Remission (number) / HAMD-17 Remission (Score ≦10): Subjects with Remission (percentage) / HAMD-17 Remission (Score ≦10): Subjects without Remission (number) / HAMD-17 Remission (Score ≦10): Subjects without Remission (percentage) / HAMD-17 reduction from baseline ≧50%: Subjects with Response (number) / HAMD-17 reduction from baseline ≧50%: Subjects with Response (percentage) / HAMD-17 reduction from baseline ≧50%: Subjects without Response (number) / HAMD-17 reduction from baseline ≧50%: Subjects without Response (percentage) / HAMD-17 Adjusted Mean change / HAMD-17 Mean Difference between TC-5214 and Placebo: PP; for primary outcome: mean change between TC-5214 and placebo from baseline on HAM-D (HAMD-17 total score): intent to treat, Week 8 to Week 16 LOCF, result in words
From the text: The Hamilton Rating Scale for Depression (HRSD), also known as the Hamilton Depression Rating Scale (HDRS) or abbreviated to HAM-D or HAMD, is a multiple choice questionnaire that clinicians may use to rate the severity of a patient's major depression (Hamilton 1967). The questionnaire rates the severity of symptoms observed in depression such as low mood, insomnia, agitation, anxiety and weight loss. The questionnaire is presently one of the most commonly used scales for rating depression in medical research. The clinician chooses the possible responses to each question by interviewing the patient and by observing the patient's symptoms. Each question has multiple possible responses which increase in severity. Although Hamilton's original scale had 17 questions, others later developed HRSD scales with different numbers of questions, the greatest of which is 29 (HRSD-29). Clinicians can use the HRSD in place of, or in conjunction with, the Montgomery-Åsberg Depression Rating Scale (MADRS), the Beck Depression Inventory (BDI), the Zung Self-Rating Depression Scale, the Wechsler Depression Rating Scale, the […] Depression Rating Scale, the Inventory of Depressive Symptomatology (IDS), the Quick Inventory of Depressive Symptomatology (QIDS), and other questionnaires. […] The results on all of the trial's secondary efficacy measures, including assessments of depression, irritability, disability, cognition, severity of illness and global improvement, were also statistically significant in favor of TC-5214 on an intent to treat basis. The Phase 2b trial of TC-5214 as an augmentation treatment for MDD was a two-phase trial conducted at 20 sites in India and three sites in the United States. In the first phase, 579 subjects with MDD received first-line treatment with citalopram hydrobromide for eight weeks, 20 mg daily for the first four weeks and 40 mg daily for the next four weeks. Citalopram, an approved treatment for MDD marketed in the United States as […]®, is from the drug class known as selective serotonin reuptake inhibitors. At the end of the eight weeks, subjects whose MADRS score had improved less than 50 percent and whose CGI-SI score was no lower than 4 were considered partial or non responders and randomized into the double blind second phase of the trial. In the double blind second phase, subjects continued their citalopram treatment and also received either add-on TC-5214 or add-on placebo for an additional eight weeks. The daily dosage of TC-5214 was initially 2 mg and could be increased at the discretion of the investigator to 4 mg and to 8 mg based on tolerability and therapeutic response. The primary outcome measure for the trial was mean change between TC-5214 and placebo from double blind baseline as measured by HAM-D at week 16. The intent to treat dataset included 265 subjects in the second phase. In more detail, a multi-center double-blind, randomized, placebo-controlled, parallel group, flexible dose titration study of TC-5214 as adjunctive therapy in subjects with major depressive disorder (MDD) who were inadequate responders to citalopram was conducted in centers in the US and India. The study consisted of a screening period, baseline/washout period, open-label phase, double-blind phase, and a follow-up visit. Subject participation in the study could continue for up to 16 weeks of treatment. Following a washout period of up to 28 days for other antidepressants, subjects with MDD and a MADRS total score >/=28 and a Clinical Global Impression-Severity (CGI-S) score >/=4 were enrolled on Day 1 into an open-label citalopram-only phase of the study. This phase lasted 8 weeks, with citalopram (CIT) dose increased from a once-daily dose of 20 mg (Day 1 through Week 4) to 40 mg (Week 4 through Week 8). A total of 579 subjects entered the open-label citalopram phase. […]

[1] = Double Blind Week 8 (Baseline), before TC-5214
[2] = Double Blind Week 16 LOCF (change from Week 8)
[3] = Double Blind Week 18 (Follow-up)
[4] = Double Blind Week 18 LOCF (Follow-up)
[5] = Double Blind Week 18 LOCF (Follow-up), change from Week 16

## CNC1(C)C2CCC(C2)C1(C)C (stereo in doubt) [TC-5214, (S)—N,2,3,3-tetramethylnorbornan-2-amine]
ITT, change from Week 8 (double-blind baseline) to Week 16 LOCF, add-on to citalopram
  HAMD-17 Adj. Mean change: −13.75
ITT, week of double-blind treatment
  onset of separation from placebo, remission rates HAMD≦7 (FIG. 1): ≤ 2 week
[1]
  HAMD-17 total score, observed Mean: 23.7
  HAMD-17 total score, observed Median: 24.0
Double Blind Week 9
  HAMD-17 Remission (Score ≦7): Subjects with Remission (number): 1
  HAMD-17 Remission (Score ≦7): Subjects with Remission (percentage): (1%)
  HAMD-17 Remission (Score ≦7): Subjects without Remission (number): 112
  HAMD-17 Remission (Score ≦7): Subjects without Remission (percentage): (99%)
  HAMD-17 Remission (Score ≦10): Subjects with Remission (number): 3
  HAMD-17 Remission (Score ≦10): Subjects with Remission (percentage): (3%)
  HAMD-17 Remission (Score ≦10): Subjects without Remission (number): 110
  HAMD-17 Remission (Score ≦10): Subjects without Remission (percentage): (97%)
  HAMD-17 reduction from baseline ≧50%: Subjects with Response (number): 3
  HAMD-17 reduction from baseline ≧50%: Subjects with Response (percentage): (3%)
  HAMD-17 reduction from baseline ≧50%: Subjects without Response (number): 110
  HAMD-17 reduction from baseline ≧50%: Subjects without Response (percentage): (97%)
Double Blind Week 10
  HAMD-17 Remission (Score ≦7): Subjects with Remission (number): 4
  HAMD-17 Remission (Score ≦7): Subjects with Remission (percentage): (4%)
  HAMD-17 Remission (Score ≦7): Subjects without Remission (number): 109
  HAMD-17 Remission (Score ≦7): Subjects without Remission (percentage): (96%)
  HAMD-17 Remission (Score ≦10): Subjects with Remission (number): 16
  HAMD-17 Remission (Score ≦10): Subjects with Remission (percentage): (14%)
  HAMD-17 Remission (Score ≦10): Subjects without Remission (number): 97
  HAMD-17 Remission (Score ≦10): Subjects without Remission (percentage): (86%)
  HAMD-17 reduction from baseline ≧50%: Subjects with Response (number): 20
  HAMD-17 reduction from baseline ≧50%: Subjects with Response (percentage): (18%)
  HAMD-17 reduction from baseline ≧50%: Subjects without Response (number): 93
  HAMD-17 reduction from baseline ≧50%: Subjects without Response (percentage): (82%)
Double Blind Week 12
  HAMD-17 Remission (Score ≦7): Subjects with Remission (number): 16
  HAMD-17 Remission (Score ≦7): Subjects with Remission (percentage): (14%)
  HAMD-17 Remission (Score ≦7): Subjects without Remission (number): 97
  HAMD-17 Remission (Score ≦7): Subjects without Remission (percentage): (86%)
  HAMD-17 Remission (Score ≦10): Subjects with Remission (number): 36
  HAMD-17 Remission (Score ≦10): Subjects with Remission (percentage): (32%)
  HAMD-17 Remission (Score ≦10): Subjects without Remission (number): 77
  HAMD-17 Remission (Score ≦10): Subjects without Remission (percentage): (68%)
  HAMD-17 reduction from baseline ≧50%: Subjects with Response (number): 40
  HAMD-17 reduction from baseline ≧50%: Subjects with Response (percentage): (35%)
  HAMD-17 reduction from baseline ≧50%: Subjects without Response (number): 73
  HAMD-17 reduction from baseline ≧50%: Subjects without Response (percentage): (65%)
Double Blind Week 14
  HAMD-17 Remission (Score ≦7): Subjects with Remission (number): 35
  HAMD-17 Remission (Score ≦7): Subjects with Remission (percentage): (31%)
  HAMD-17 Remission (Score ≦7): Subjects without Remission (number): 78
  HAMD-17 Remission (Score ≦7): Subjects without Remission (percentage): (69%)
  HAMD-17 Remission (Score ≦10): Subjects with Remission (number): 53
  HAMD-17 Remission (Score ≦10): Subjects with Remission (percentage): (47%)
  HAMD-17 Remission (Score ≦10): Subjects without Remission (number): 60
  HAMD-17 Remission (Score ≦10): Subjects without Remission (percentage): (53%)
  HAMD-17 reduction from baseline ≧50%: Subjects with Response (number): 67
  HAMD-17 reduction from baseline ≧50%: Subjects with Response (percentage): (59%)
  HAMD-17 reduction from baseline ≧50%: Subjects without Response (number): 46
  HAMD-17 reduction from baseline ≧50%: Subjects without Response (percentage): (41%)
Double Blind Week 16
  HAMD-17 Remission (Score ≦7): Subjects with Remission (number): 50
  HAMD-17 Remission (Score ≦7): Subjects with Remission (percentage): (44%)
  HAMD-17 Remission (Score ≦7): Subjects without Remission (number): 63
  HAMD-17 Remission (Score ≦7): Subjects without Remission (percentage): (56%)
  HAMD-17 Remission (Score ≦10): Subjects with Remission (number): 75
  HAMD-17 Remission (Score ≦10): Subjects with Remission (percentage): (66%)
  HAMD-17 Remission (Score ≦10): Subjects without Remission (number): 38
  HAMD-17 Remission (Score ≦10): Subjects without Remission (percentage): (34%)
  HAMD-17 reduction from baseline ≧50%: Subjects with Response (number): 84
  HAMD-17 reduction from baseline ≧50%: Subjects with Response (percentage): (74%)
  HAMD-17 reduction from baseline ≧50%: Subjects without Response (number): 29
  HAMD-17 reduction from baseline ≧50%: Subjects without Response (percentage): (26%)
Double Blind Week 16 LOCF
  HAMD-17 total score, observed Mean: 9.1
  HAMD-17 total score, observed Median: 8.0
[2]
  HAMD-17 Adjusted Mean change: −14.64
  HAMD-17 Mean Difference between TC-5214 and Placebo: 6.10
[3]
  HAMD-17 Remission (Score ≦7): Subjects with Remission (number): 58
  HAMD-17 Remission (Score ≦7): Subjects with Remission (percentage): (51%)
  HAMD-17 Remission (Score ≦7): Subjects without Remission (number): 55
  HAMD-17 Remission (Score ≦7): Subjects without Remission (percentage): (49%)
  HAMD-17 Remission (Score ≦10): Subjects with Remission (number): 77
  HAMD-17 Remission (Score ≦10): Subjects with Remission (percentage): (68%)
  HAMD-17 Remission (Score ≦10): Subjects without Remission (number): 36
  HAMD-17 Remission (Score ≦10): Subjects without Remission (percentage): (32%)
  HAMD-17 reduction from baseline ≧50%: Subjects with Response (number): 83
  HAMD-17 reduction from baseline ≧50%: Subjects with Response (percentage): (73%)
  HAMD-17 reduction from baseline ≧50%: Subjects without Response (number): 30
  HAMD-17 reduction from baseline ≧50%: Subjects without Response (percentage): (27%)
[4]
  HAMD-17 total score, observed Mean: 8.6
  HAMD-17 total score, observed Median: 7.0
[5]
  HAMD-17 Adjusted Mean change: −0.83
  HAMD-17 Mean Difference between TC-5214 and Placebo: −0.01
  primary outcome: mean change between TC-5214 and placebo from baseline on HAM-D (HAMD-17 total score): highly statistically significant in favor of TC-5214
Listed as TC-5214-23
  primary outcome: mean change between TC-5214 and placebo from baseline on HAM-D (HAMD-17 total score): statistically significant favoring TC-5214-23
